From ChEMBL document CHEMBL1201862, “PubChem BioAssay data set” (2004)
Counter-ions that a name gives are not always drawn. The source made the active and inactive calls.

What was measured:
[1] = target: T1, Cytochrome P450 1A2 (Homo sapiens, UniProt P05177);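 note: PubChem cytochrome P450 panel assay, CYP1A2 panel member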
T1 sequence (P05177 whole entry): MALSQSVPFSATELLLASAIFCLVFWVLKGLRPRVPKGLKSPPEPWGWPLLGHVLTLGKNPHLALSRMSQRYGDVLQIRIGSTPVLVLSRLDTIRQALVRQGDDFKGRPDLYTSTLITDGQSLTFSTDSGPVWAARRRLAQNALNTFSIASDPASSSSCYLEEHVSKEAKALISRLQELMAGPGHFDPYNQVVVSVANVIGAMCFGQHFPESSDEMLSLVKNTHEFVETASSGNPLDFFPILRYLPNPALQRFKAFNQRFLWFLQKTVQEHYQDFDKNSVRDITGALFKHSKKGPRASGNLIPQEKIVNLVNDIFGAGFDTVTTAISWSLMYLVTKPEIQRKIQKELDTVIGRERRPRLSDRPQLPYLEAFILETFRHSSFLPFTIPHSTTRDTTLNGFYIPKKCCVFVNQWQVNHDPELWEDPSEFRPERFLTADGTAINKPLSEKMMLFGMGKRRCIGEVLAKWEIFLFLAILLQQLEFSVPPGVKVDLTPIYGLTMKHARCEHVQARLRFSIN

[2] = test system: H4; assay: Luminescence Cell-Based Dose Response HTS to Identify Activators of 5'UTR Stem-Loop Driven Prion Protein mRNA Translation in H4 Neuroglioblastoma Cells. [Related pubchem assays: 1829 (Project Summary), 1814 (Primary HTS)]; format: functional; conditions: Homo sapiens
[3] = target: DNA repair protein RAD52 homolog (Homo sapiens, UniProt P43351); format: functional, biochemical
[4] = target: Induced myeloid leukemia cell differentiation protein Mcl-1 (Homo sapiens, UniProt Q07820); assay: MCL1-BIM BH3 interaction inhibitors, dose response, biochemical, fluorescence polarization, BIM-BH3 peptide, 1536-well (AID 2217)
[5] = target: 14-3-3 protein gamma (Homo sapiens, UniProt P61981); assay: modulators of 14-3-3 gamma client binding – dose response (AID 711); format: functional
[6] = target: Vascular endothelial growth factor receptor 1 (Homo sapiens, UniProt P17948); format: functional;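 note: measured within a kinome-wide profiling panel, FLT1 as the panel member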
[7] = target: MAP/microtubule affinity-regulating kinase 3 (Homo sapiens, UniProt P27448); format: functional;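 note: MARK3 affinity measured as one member of a kinome panel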
[8] = target: Protein kinase C iota type (Homo sapiens, UniProt P41743); format: functional;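 note: measured within a kinome-wide kinase panel, PRKCI as panel member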
[9] = target: Ribosomal protein S6 kinase beta-1 (Homo sapiens, UniProt P23443); format: functional;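 note: measured as one member of a kinome-wide profiling panel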
[10] = target: Platelet-derived growth factor receptor alpha (Homo sapiens, UniProt P16234); assay: Navigating the Kinome. Panel member name: PDGFRA; format: functional
[11] = target: Glycogen synthase kinase-3 beta (Homo sapiens, UniProt P49841); format: functional;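 note: value comes from a broad kinome profiling panel, with GSK3B as the panel member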
[12] = target: Protein kinase C theta type (Homo sapiens, UniProt Q04759); assay: Navigating the Kinome. Panel member name: PRKCQ; format: functional
[13] = target: Serine/threonine-protein kinase Chk2 (Homo sapiens, UniProt O96017); format: functional;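 note: CHEK2 entry within a kinome-wide screening panel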
[14] = target: Proto-oncogene tyrosine-protein kinase receptor Ret (Homo sapiens, UniProt P07949); format: functional;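 note: measured within a kinome-wide profiling panel, RET as the panel member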
[15] = target: Lymphokine-activated killer T-cell-originated protein kinase (Homo sapiens, UniProt Q96KB5); format: functional;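 note: value comes from a kinase panel screen in which TOPK was one of the panel members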
[16] = target: Testis-specific serine/threonine-protein kinase 1 (Homo sapiens, UniProt Q9BXA7); format: functional
[17] = target: RAC-gamma serine/threonine-protein kinase (Homo sapiens, UniProt Q9Y243); format: functional
[18] = target: 3-phosphoinositide-dependent protein kinase 1 (Homo sapiens, UniProt O15530); format: functional;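 note: value comes from the Navigating the Kinome panel, PDPK1 member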
[19] = target: Serine/threonine-protein kinase PAK 1 (Homo sapiens, UniProt Q13153); format: functional
[20] = target: Mast/stem cell growth factor receptor Kit (Homo sapiens, UniProt P10721); format: functional;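 note: KIT entry within a kinase panel assay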
[21] = target: Macrophage colony-stimulating factor 1 receptor (Homo sapiens, UniProt P07333); format: functional;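 note: value comes from the Navigating the Kinome screening panel, CSF1R member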
[22] = target: Serine/threonine-protein kinase MRCK alpha (Homo sapiens, UniProt Q5VT25); format: functional
[23] = target: Serine/threonine-protein kinase PLK4 (Homo sapiens, UniProt O00444); format: functional;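 note: PLK4 measured as one member of a kinome-wide kinase profiling panel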
[24] = target: Interleukin-1 receptor-associated kinase 1 (Homo sapiens, UniProt P51617); format: functional;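 note: IRAK1 tested as one member of a kinome panel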
[25] = target: Tyrosine-protein kinase ABL1 (Homo sapiens, UniProt P00519); format: functional
Chain of Tyrosine-protein kinase ABL1 (P00519 whole entry): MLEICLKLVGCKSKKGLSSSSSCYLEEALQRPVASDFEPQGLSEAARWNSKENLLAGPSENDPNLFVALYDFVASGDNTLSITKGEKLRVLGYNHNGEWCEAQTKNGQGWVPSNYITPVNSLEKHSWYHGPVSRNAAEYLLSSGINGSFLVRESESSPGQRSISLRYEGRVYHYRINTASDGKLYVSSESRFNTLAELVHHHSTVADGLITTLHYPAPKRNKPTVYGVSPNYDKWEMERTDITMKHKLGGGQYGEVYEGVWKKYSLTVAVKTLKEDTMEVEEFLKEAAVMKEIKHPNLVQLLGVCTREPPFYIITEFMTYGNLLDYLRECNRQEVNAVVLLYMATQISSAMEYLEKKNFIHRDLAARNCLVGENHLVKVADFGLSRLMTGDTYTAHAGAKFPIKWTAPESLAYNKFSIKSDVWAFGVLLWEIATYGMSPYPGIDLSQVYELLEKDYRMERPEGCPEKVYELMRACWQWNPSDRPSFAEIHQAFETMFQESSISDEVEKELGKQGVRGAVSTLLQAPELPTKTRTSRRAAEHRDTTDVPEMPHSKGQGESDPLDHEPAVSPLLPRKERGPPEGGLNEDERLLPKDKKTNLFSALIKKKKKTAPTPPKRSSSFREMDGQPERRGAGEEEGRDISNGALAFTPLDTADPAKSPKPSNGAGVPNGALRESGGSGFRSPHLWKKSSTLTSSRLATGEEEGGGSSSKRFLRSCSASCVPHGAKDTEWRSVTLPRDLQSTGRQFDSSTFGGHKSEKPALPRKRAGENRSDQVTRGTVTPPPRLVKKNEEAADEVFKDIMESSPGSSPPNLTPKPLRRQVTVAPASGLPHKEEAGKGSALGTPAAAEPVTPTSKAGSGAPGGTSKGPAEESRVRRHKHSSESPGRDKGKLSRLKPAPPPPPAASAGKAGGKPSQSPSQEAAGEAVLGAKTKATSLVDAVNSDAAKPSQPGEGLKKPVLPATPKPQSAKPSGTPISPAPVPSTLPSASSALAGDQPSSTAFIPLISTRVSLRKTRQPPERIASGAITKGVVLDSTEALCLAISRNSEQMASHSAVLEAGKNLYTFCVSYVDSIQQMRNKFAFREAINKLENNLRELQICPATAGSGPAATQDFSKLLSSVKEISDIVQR

Chain of Interleukin-1 receptor-associated kinase 1 (P51617 whole entry): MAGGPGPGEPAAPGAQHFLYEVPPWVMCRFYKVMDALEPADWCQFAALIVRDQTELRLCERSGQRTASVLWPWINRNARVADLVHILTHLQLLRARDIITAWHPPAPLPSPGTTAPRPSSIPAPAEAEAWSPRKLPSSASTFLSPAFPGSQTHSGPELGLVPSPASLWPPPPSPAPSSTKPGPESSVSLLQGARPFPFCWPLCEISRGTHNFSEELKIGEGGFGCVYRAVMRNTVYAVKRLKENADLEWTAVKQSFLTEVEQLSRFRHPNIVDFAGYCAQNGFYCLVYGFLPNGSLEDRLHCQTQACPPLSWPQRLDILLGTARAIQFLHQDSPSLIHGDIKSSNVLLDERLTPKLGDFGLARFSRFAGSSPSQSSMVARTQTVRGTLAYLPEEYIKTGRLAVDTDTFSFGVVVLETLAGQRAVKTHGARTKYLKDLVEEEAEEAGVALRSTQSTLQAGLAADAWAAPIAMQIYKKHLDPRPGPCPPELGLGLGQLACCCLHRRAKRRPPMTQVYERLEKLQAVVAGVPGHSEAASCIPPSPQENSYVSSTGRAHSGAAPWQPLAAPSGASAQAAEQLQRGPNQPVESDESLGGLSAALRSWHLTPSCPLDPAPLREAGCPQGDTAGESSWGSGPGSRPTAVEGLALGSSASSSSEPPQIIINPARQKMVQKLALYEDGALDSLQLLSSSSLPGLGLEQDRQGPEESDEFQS
Chain of Platelet-derived growth factor receptor alpha (P16234 whole entry): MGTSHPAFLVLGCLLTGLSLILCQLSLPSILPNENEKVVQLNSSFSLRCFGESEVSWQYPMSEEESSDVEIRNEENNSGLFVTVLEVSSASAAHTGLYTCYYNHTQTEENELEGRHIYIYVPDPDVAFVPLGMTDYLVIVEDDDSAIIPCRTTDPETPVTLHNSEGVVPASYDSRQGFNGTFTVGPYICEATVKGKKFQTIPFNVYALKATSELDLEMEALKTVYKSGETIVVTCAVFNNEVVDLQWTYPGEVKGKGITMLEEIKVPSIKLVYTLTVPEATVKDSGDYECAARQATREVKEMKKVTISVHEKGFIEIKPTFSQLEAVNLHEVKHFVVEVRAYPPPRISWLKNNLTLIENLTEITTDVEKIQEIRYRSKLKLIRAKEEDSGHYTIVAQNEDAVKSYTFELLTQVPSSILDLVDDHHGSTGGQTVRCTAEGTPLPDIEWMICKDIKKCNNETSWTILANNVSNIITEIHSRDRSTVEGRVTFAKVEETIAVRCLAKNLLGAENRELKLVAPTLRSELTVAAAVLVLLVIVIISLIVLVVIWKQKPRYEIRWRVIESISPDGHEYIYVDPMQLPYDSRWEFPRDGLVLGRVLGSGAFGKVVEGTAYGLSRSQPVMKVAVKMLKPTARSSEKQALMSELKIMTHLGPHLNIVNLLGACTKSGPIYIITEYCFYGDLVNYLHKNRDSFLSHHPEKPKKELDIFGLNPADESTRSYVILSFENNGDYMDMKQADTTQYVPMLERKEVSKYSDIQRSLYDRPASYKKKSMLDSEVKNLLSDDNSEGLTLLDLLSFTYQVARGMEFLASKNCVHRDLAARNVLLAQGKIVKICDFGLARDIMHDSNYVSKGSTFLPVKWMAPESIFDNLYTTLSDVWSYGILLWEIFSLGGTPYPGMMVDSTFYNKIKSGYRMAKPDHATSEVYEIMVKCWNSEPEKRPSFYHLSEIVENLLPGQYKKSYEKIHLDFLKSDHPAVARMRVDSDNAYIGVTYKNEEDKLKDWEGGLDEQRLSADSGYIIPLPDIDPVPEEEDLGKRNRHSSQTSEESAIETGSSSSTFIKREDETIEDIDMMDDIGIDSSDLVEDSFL
Chain of Macrophage colony-stimulating factor 1 receptor (P07333 whole entry): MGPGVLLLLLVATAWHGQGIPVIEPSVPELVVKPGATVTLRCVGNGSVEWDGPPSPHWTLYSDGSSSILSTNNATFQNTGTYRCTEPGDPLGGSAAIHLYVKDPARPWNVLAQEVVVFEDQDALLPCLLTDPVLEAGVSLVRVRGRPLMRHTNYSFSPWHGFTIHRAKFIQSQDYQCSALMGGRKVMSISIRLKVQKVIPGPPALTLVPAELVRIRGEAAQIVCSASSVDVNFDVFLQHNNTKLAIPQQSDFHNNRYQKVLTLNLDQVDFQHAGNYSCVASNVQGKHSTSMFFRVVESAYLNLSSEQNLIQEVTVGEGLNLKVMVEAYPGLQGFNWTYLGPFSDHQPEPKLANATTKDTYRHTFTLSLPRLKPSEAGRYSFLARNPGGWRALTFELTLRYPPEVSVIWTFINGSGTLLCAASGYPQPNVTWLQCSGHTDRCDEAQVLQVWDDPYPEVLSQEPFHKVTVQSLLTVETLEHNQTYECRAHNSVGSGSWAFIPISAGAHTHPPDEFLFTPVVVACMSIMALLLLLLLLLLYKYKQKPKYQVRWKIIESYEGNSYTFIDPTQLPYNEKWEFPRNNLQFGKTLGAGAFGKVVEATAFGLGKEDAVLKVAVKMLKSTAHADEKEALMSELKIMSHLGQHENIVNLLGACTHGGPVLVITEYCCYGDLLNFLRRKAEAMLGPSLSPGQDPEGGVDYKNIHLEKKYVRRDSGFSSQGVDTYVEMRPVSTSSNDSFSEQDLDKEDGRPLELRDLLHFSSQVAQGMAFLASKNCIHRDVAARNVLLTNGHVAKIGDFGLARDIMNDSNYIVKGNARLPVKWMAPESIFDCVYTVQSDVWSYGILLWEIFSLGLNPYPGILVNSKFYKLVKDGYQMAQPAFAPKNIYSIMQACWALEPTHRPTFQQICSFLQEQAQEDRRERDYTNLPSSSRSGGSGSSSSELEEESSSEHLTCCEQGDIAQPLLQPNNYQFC
Chain of Proto-oncogene tyrosine-protein kinase receptor Ret (P07949 whole entry): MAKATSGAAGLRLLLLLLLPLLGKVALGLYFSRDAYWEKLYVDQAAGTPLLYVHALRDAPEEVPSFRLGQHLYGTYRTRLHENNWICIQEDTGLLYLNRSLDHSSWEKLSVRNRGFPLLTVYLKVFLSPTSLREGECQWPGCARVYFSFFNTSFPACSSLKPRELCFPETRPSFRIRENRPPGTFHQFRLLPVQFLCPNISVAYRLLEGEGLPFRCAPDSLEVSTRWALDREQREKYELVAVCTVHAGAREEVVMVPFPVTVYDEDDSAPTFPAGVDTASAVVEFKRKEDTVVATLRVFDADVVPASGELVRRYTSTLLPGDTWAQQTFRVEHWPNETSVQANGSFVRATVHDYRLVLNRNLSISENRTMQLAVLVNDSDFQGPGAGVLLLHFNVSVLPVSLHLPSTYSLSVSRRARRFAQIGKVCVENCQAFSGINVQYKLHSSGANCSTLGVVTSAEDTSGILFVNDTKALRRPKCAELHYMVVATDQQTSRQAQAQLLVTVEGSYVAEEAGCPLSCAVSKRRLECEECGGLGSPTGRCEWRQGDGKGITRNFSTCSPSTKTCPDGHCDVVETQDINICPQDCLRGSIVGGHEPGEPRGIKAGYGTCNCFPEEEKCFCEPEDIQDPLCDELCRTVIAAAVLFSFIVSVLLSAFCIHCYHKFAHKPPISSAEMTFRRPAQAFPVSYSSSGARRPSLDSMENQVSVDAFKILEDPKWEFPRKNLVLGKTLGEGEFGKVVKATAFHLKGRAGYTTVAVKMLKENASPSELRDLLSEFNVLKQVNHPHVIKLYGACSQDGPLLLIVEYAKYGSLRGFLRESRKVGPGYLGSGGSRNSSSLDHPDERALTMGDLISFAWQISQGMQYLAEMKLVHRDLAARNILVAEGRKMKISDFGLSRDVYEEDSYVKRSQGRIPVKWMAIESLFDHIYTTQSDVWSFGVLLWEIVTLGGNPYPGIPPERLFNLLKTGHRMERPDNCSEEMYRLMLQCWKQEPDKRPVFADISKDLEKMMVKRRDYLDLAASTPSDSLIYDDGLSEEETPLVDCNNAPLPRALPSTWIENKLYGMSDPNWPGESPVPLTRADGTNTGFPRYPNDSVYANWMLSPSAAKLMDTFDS

CCC(C)n1c(NC(=O)c2ccccc2)c(C#N)c2nc3ccccc3nc21 (stereo not given)
AC50 [1]: 25100 nM (inconclusive)

CCN1/C(=C\c2ccc3ccccc3[n+]2CC)Sc2cc(C)ccc21
EC50 [2]: > 120000 nM (not active)

CCCCCCCCCCOC(=O)C[n+]1c(COc2ccc(C)cc2)n(C)c2ccccc21
AC50 [3]: 9470 nM (active)

CC[C@@H](CO)NC(=O)[C@@H]1C=C2c3cccc4c3c(cn4C)C[C@H]2N(C)C1 [METHYSERGIDE MALEATE]
IC50 [4]: 20400 nM (not active)
IC50 [5]: > 50000 nM (not active)

CN1CCN(c2nc(C3=C(c4c[nH]c5ccccc45)C(=O)NC3=O)c3ccccc3n2)CC1 [SOTRASTAURIN]
Ki [6]: > 2000 nM (inactive)
Ki [7]: 1000 nM (active)
Ki [8]: 398 nM (active)
Ki [9]: 158 nM (active)
Ki [10]: > 2510 nM (inactive)
Ki [11]: 200 nM (active)
Ki [12]: 0.631 nM (active)
Ki [13]: > 1580 nM (inactive)
Ki [14]: > 2000 nM (inactive)
Ki [15]: > 10000 nM (inactive)
Ki [16]: > 1580 nM (inactive)
Ki [17]: > 10000 nM (inactive)
Ki [18]: 1580 nM (active)
Ki [19]: > 10000 nM (inactive)
Ki [20]: > 1260 nM (inactive)
Ki [21]: > 2510 nM (inactive)
Ki [22]: > 10000 nM (inactive)
Ki [23]: > 3980 nM (inactive)
Ki [24]: > 7940 nM (inactive)
Ki [25]: > 1580 nM (inactive)
